Structures can show the parent of a compound that is named as a salt. Where two headings read alike, the source gives them in different places.

This is an account of results in PMC5248655 (ACS chemical neuroscience, 2015).

Data set [1] deals with LRP1. In words: Western blot of LRP1 expression in SCHs. Format: cell-based, rat. The following applies: 48 h treatment; for increase in LRP1 expression: n = 4. (In general: A western blot detects proteins with antibodies after separation by electrophoresis.)
Data set [2] has as its system P-gp. The data set is described as follows: Western blot of P-gp expression in SCHs. The data set is classed as cell-based, rat. The conditions noted are these: 48 h treatment, vs control cells, n = 4.
In another data set the test system is C57BL/6 wild-type mice. The conditions noted are these: compared to control mice; cited from earlier work.
Data set [3] deals with sandwich-cultured primary rat hepatocytes (SCHs). The conditions noted are these: induction of LRP1 and P-gp; cited from earlier work.
Data set [4] relates to Sprague–Dawley male rats. The conditions noted are these: n = 5; for hepatic uptake (extravascular extraction, E) of ^125I-Aβ40: absolute value.
The test system of data set [5] is Sprague–Dawley male rats. The data set is described as follows: TCA precipitation assay of Aβ degradation in treated rats. The data set is classed as in vivo, rat. The conditions noted are these: rats treated 26 days, data not shown.
In data set [6] the test system is P-gp. The data set is described as follows: Western blot of P-gp expression in RBE4 cells. The following applies: 5 µM, 48 h, normalized, vs control, n = 4. Format: cell-based, rat.
In data set [7] the test system is LRP1. In words: Western blot of hepatic LRP1 expression in treated rats. Format: in vivo, rat. The following applies: 26 day treatment, n = 5.
Data set [8] deals with LRP1. In words: Western blot of LRP1 expression in RBE4 cells. Format: cell-based, rat. The conditions noted are these: 5 µM, 48 h, normalized, vs control, n = 4.
The test system of data set [9] is P-gp. The following applies: 26 day treatment, Western blot, n = 5.
Another data set concerns Aβ42. The conditions noted are these: rat, in vivo.
In data set [10] the test system is LRP1. The conditions noted are these: 26 day treatment, Western blot, n = 5.
Data set [11] deals with P-gp. In words: Western blot of hepatic P-gp expression in treated rats. The following applies: 26 day treatment, n = 5. Format: in vivo, rat.
For another data set, the system named is Aβ40. The following applies: rat, in vivo.
The test system of data set [12] is Sprague–Dawley male rats. In words: Brain efflux index. The following applies: 60 min after intracerebral microinjection.

Take `COc1ccc2c3c1O[C@H]1C[C@@H](O)C=C[C@@]31CCN(C)C2` [galantamine, Galantamine hydrochloride]: the “increase in LRP1 expression” value in the data set with LRP1 [1] (vs control cells) was 1.2 fold. Further, the “increase in P-gp expression” value in the data set on P-gp [2] turned out to be 1.3 fold.

As to `CC12CC3CC(C)(C1)CC(N)(C3)C2` [memantine], the “effect on LRP1 expression (in words)” value in the data set on LRP1 [1] is given as “no effect”.

As for `C/C=C(/C=O)[C@@H](CC=O)CC(=O)OCCc1ccc(O)cc1` [oleocanthal], in the data set on C57BL/6 wild-type mice, the “increase in brain efflux of exogenously introduced Aβ40” value is listed as 29%.

For `CO[C@H]1/C=C/O[C@@]2(C)Oc3c(C)c(O)c4c(O)c(c(/C=N/N5CCN(C)CC5)c(O)c4c3C2=O)NC(=O)/C(C)=C\C=C\[C@H](C)[C@H](O)[C@@H](C)[C@@H](O)[C@@H](C)[C@H](OC(C)=O)[C@@H]1C` [rifampicin], the “effect on biliary clearance of ^125I-Aβ (in words)” value in data set [3] is “significantly increased”.

For `CCN(C)C(=O)Oc1cccc([C@H](C)N(C)C)c1` [rivastigmine, rivastigmine L-tartrate], the “increase in LRP1 expression” value is given as 1.7 fold in the data set on LRP1 [1] (vs control cells) and “approximately 1.7 fold” with LRP1 [8]. The “hepatic uptake (extravascular extraction, E) of ^125I-Aβ40” value in the data set with Sprague–Dawley male rats [4] (aged rats, 26 day treatment, mean ± SEM) was 64.0 ± 4.9%; in the data set with Sprague–Dawley male rats [4] (young rats, 26 day treatment, mean ± SEM), 64 ± 3.7%. Also, the “increase in hepatic uptake of ^125I-Aβ40” value with Sprague–Dawley male rats [4] (aged rats, 26 day treatment, vs vehicle-treated rats of the same age) amounted to 119%. In addition, the “effect on Aβ degradation” value in the data set on Sprague–Dawley male rats [5] is reported as “no effect”. Moreover, the “increase in P-gp expression” value in the data set on P-gp [6] was “approximately 1.7 fold”; in the data set on P-gp [2] it was 1.3 fold. The “increase in liver LRP1 expression” value in the data set with LRP1 [7] (aged rats) is listed as 88%; in the data set with LRP1 [7] (young rats), 41%. Further, the figures for the “increase in brain P-gp protein expression” value in the data set on P-gp [9] (aged rats) and in the data set on P-gp [9] (young rats) were 20% and 36%, respectively. In addition, the “reduction of total brain Aβ42 level” value with Aβ42 is listed as “approximately 52%”. Further, the “reduction trend in brain Aβ42 levels (in words)” value in the data set on Aβ42 is on record as “not statistically significant”. In addition, in the data set on Aβ42, the “total Aβ42 level in brain” value is given as 466 ± 67 pmol/g brain tissue. The figures for the “increase in brain LRP1 protein expression” value in the data set on LRP1 [10] (aged rats) and in the data set on LRP1 [10] (young rats) were 56% and 42%, respectively. Also, the “increase in liver P-gp expression” value in the data set with P-gp [11] (aged rats) is listed as 81%; in the data set with P-gp [11] (young rats) it was 47%. For the same molecule, the “reduction of total brain Aβ40 level” value with Aβ40 is listed as “approximately 52%”. Besides, the “total Aβ40 level in brain” value in the data set on Aβ40 is given as 1713 ± 260 pmol/g brain tissue.

For the molecule `Nc1c2c(nc3ccccc13)CCCC2` [tacrine, Tacrine hydrochloride], the “down-regulation of LRP1 expression” value in the data set on LRP1 [1] (vs control cells) was determined as 20%.

For ^125I-Aβ40, the “reduction of extravascular extraction (E) in aged compared to young rats” value in the data set on Sprague–Dawley male rats [4] (aged (24 months) vs young (4 months) rats) amounted to 44%. Further, the “extravascular extraction or hepatic uptake of ^125I-Aβ40” value with Sprague–Dawley male rats [4] (vehicle-treated young rats, single pass into the portal vein, 18 s, mean ± SEM) is 51.9 ± 2.4%. In addition, the figures for the “^125I-Aβ40 BEI%” value with Sprague–Dawley male rats [12] (vehicle-treated aged rats (24 months)) and in the data set with Sprague–Dawley male rats [12] (vehicle-treated young rats (4 months)) were 47% and 59%, respectively.
